Results: ChEMBL document CHEMBL4414648, “Novel Benzohydroxamate-Based Potent and Selective Histone Deacetylase 6 (HDAC6) Inhibitors Bearing a Pentaheterocyclic Scaffold: Design, Synthesis, and Biological Evaluation” (J Med Chem, 2019)
Active and inactive are the calls of the source. The rule behind the calls is not given here.

What was measured:
[1] = Apparent volume of distribution at steady state in CD-1 mouse at […], iv measured within 6 hrs by LC-MS/MS analysis; format: ADME, organism-based; settings: in vivo, read-out: Vdss(app)
PBMC = assay: Cytotoxicity against human PBMC cells after 72 hrs by CellTiter 96 aqueous one solution assay; format: cell-based
[2] = Oral bioavailability in rat; format: ADME, organism-based; settings: in vivo
[3] = Toxicity in C57BL/6 mouse assessed as effect on body weight at 30 mg/kg, ip administered for 5 days/week for two cycles and measured every other day relative to control; format: organism-based; settings: in vivo, 120 h
[4] = Toxicity in C57BL/6 mouse assessed as effect on spasms up to 50 mg/kg, ip administered for 5 days/week for two cycles and measured daily starting from day 1; format: organism-based; settings: in vivo, 120 h
[5] = Total clearance in CD-1 mouse at […], iv measured within 6 hrs by LC-MS/MS analysis; format: ADME, organism-based; settings: in vivo
[6] = Toxicity in C57BL/6 mouse assessed as effect on WBC level at 30 mg/kg, ip administered for 5 days/week for two cycles and measured 60 mins post last dose by beckman coulter counting method relative to control; format: organism-based; settings: in vivo, 1 h
Mus musculus = assay: In vivo inhibition of HDAC6 in C57BL/6 mouse assessed as increase in acetylated tubulin level in spleen cytosolic protein extract at 30 mg/kg, ip measured after 24 hrs by ELISA; format: functional, organism-based
[7] = Stability in human liver S9 fraction assessed as parent compound remaining at 5 uM after 90 mins in presence of NADPH by LC-MS/MS analysis; format: ADME, subcellular; settings: read-out: Stability
[8] = Stability in human plasma assessed as parent compound remaining at 100 uM after 4 hrs by LC-MS/MS analysis; format: ADME, cell-free; settings: read-out: Stability
[9] = Toxicity in C57BL/6 mouse assessed as effect on body weight at 10 mg/kg, ip administered for 5 days/week for two cycles and measured every other day relative to control; format: organism-based; settings: in vivo, 120 h
[10] = Oral bioavailability in dog; format: ADME, organism-based, Canis lupus familiaris; settings: in vivo
[11] = Toxicity in C57BL/6 mouse assessed as induction of leukopenia up to 50 mg/kg, ip administered for 5 days/week for two cycles; format: organism-based; settings: in vivo, 120 h
[12] = Stability in rat plasma assessed as parent compound remaining at 100 uM after 4 hrs by LC-MS/MS analysis; format: ADME, cell-free; settings: read-out: Stability
[13] = Toxicity in C57BL/6 mouse assessed as induction of piloerection up to 50 mg/kg, ip administered for 5 days/week for two cycles and measured daily starting from day 1; format: organism-based; settings: in vivo, 120 h
[14] = Cmax in CD-1 mouse at 5.2 mg/kg, po measured within 6 hrs by LC-MS/MS analysis; format: ADME, organism-based; parameters: dose 5.2 mg/kg, route oral; settings: in vivo
[15] = Toxicity in C57BL/6 mouse assessed as effect on platelet level at 50 mg/kg, ip administered for 5 days/week for two cycles and measured 60 mins post last dose by cell counter method relative to control; format: organism-based; settings: in vivo, 1 h
[16] = Toxicity in C57BL/6 mouse assessed as effect on body temperature up to 50 mg/kg, ip administered for 5 days/week for two cycles and measured daily starting from day 1; format: organism-based; settings: in vivo, 120 h
[17] = Drug level in C57BL/6 mouse plasma at 30 mg/kg, ip measured after 24 hrs; format: ADME, organism-based; settings: in vivo, BLD = below limit of detection
[18] = Toxicity in C57BL/6 mouse assessed as effect on platelet level at 30 mg/kg, ip administered for 5 days/week for two cycles and measured 60 mins post last dose by cell counter method relative to control; format: organism-based; settings: in vivo, 1 h
[19] = Drug level in CD-1 mouse at […], iv measured after 5 mins by LC-MS/MS analysis; format: ADME, organism-based; settings: in vivo, read-out: Drug uptake
[20] = Toxicity in ip dosed C57BL/6 mouse administered for 5 days/week for two cycles; format: organism-based; settings: in vivo
697 = assay: Cytotoxicity against human 697 cells after 48 hrs by CellTiter 96 aqueous one solution assay; format: cell-based; settings: Homo sapiens, 697, 48 h
[21] = Stability in rat liver S9 fraction assessed as parent compound remaining at 5 uM after 90 mins in presence of NADPH by LC-MS/MS analysis; format: ADME, subcellular; settings: read-out: Stability
[22] = Toxicity in C57BL/6 mouse assessed as effect on stool up to 50 mg/kg, ip administered for 5 days/week for two cycles and measured daily starting from day 1; format: organism-based; settings: in vivo, 120 h
[23] = Toxicity in C57BL/6 mouse assessed as effect on postural changes up to 50 mg/kg, ip administered for 5 days/week for two cycles and measured daily starting from day 1; format: organism-based; settings: in vivo, 120 h
[24] = Toxicity in C57BL/6 mouse assessed as induction of kyphosis up to 50 mg/kg, ip administered for 5 days/week for two cycles and measured daily starting from day 1; format: organism-based; settings: in vivo, 120 h
[25] = Oral bioavailability in CD-1 mouse at 5.2 mg/kg measured within 6 hrs by LC-MS/MS analysis; format: ADME, organism-based; settings: in vivo
[26] = Toxicity in C57BL/6 mouse assessed as effect on platelet level at 10 mg/kg, ip administered for 5 days/week for two cycles and measured 60 mins post last dose by cell counter method relative to control; format: organism-based; settings: in vivo, 1 h
[27] = Toxicity in C57BL/6 mouse assessed as inactivity/hyperactivity up to 50 mg/kg, ip administered for 5 days/week for two cycles and measured daily starting from day 1; format: organism-based; settings: in vivo, 120 h
[28] = Toxicity in C57BL/6 mouse assessed as effect on grooming up to 50 mg/kg, ip administered for 5 days/week for two cycles; format: organism-based; settings: in vivo, 120 h
[29] = Tmax in CD-1 mouse at 5.2 mg/kg, po measured within 6 hrs by LC-MS/MS analysis; format: ADME, organism-based; settings: in vivo
[30] = Terminal half life in CD-1 mouse at […], iv measured within 6 hrs by LC-MS/MS analysis; format: ADME, organism-based; settings: in vivo, read-out: beta t1/2 (converted)
[31] = Toxicity in C57BL/6 mouse assessed as induction of diarrhea up to 50 mg/kg, ip administered for 5 days/week for two cycles and measured daily starting from day 1; format: organism-based; settings: in vivo, 120 h
[32] = Total AUC in CD-1 mouse at 5.2 mg/kg, po measured within 6 hrs by LC-MS/MS analysis; format: ADME, organism-based; parameters: dose 5.2 mg/kg, route oral, time AUCmax; settings: in vivo
[33] = Toxicity in C57BL/6 mouse assessed as effect on body weight at 50 mg/kg, ip administered for 5 days/week for two cycles and measured every other day relative to control; format: organism-based; settings: in vivo, 120 h
[34] = Toxicity in C57BL/6 mouse assessed as effect on WBC level at 10 mg/kg, ip administered for 5 days/week for two cycles and measured 60 mins post last dose by beckman coulter counting method relative to control; format: organism-based; settings: in vivo, 1 h
[35] = Toxicity in C57BL/6 mouse assessed as effect on WBC level at 50 mg/kg, ip administered for 5 days/week for two cycles and measured 60 mins post last dose by beckman coulter counting method relative to control; format: organism-based; settings: in vivo, 1 h
[36] = Toxicity in C57BL/6 mouse assessed as effect on social behavior up to 50 mg/kg, ip administered for 5 days/week for two cycles; format: organism-based; settings: in vivo, 120 h

O=C(NO)c1ccc(Cn2nnnc2-c2cccs2)cc1
Vd at 6 h [1]: 4.8 L/kg
IC50 (PBMC): > 1000 nM
bioavailability [2]: 25%
Activity [3]: 3.5%
Activity [4]: Non-Toxic
clearance at 6 h [5]: 172 mL/min/kg
Activity [6]: -11%
inhibition (Mus musculus): Active
remaining at […], 5 µM [7]: 100%
remaining at 4 h, 100 µM [8]: 91%
Activity [9]: 2.2%
bioavailability [10]: 16%
Activity [11]: Non-Toxic
remaining at 4 h, 100 µM [12]: 62%
Activity [13]: Non-Toxic
Cmax [14]: 238 ng/mL
Activity [15]: -1%
Activity [16]: Non-Toxic
Drug uptake [17]: Bld
Activity [18]: -7%
concentration at 5 min [19]: 685 ng/mL
MTD at 120 h [20]: > 50 mg/kg
IC50 697: > 1000 nM
remaining at […], 5 µM [21]: 82%
Activity [22]: Non-Toxic
Activity [23]: Non-Toxic
Activity [24]: Non-Toxic
bioavailability [25]: 19%
Activity [26]: -5%
Activity [27]: Non-Toxic
Activity [28]: Non-Toxic
Tmax [29]: 4.8 min
half-life at 6 h [30]: 60 min
Activity [31]: Non-Toxic
AUC at 6 h [32]: 94 ng·h/mL
Activity [33]: 1.4%
Activity [34]: -4%
Activity [35]: -15%
Activity [36]: Non-Toxic
